No end group written: not given here.
Tests used:
Assay type in all cases: in vivo, mouse
[1] = system: myocardial I-R injury in C57BL/6 mice; assay: Myocardial I-R in mice: systemic inflammation after 48 h reperfusion
Experimental: (§1) Male C57BL/6 mice were breed and housed in the AMREP Animal Centre and maintained under a 12 h light/dark cycle. After anaesthesia (i.p., ketamine 80 mg/kg, xylazine 20 mg/kg and atropine 1.2 mg/kg), mice were randomly assigned to 24 h, 48 h and 7 days reperfusion groups and underwent reversible left arterial descending (LAD) ligation as described (Gao XM, 2011; JMCC, 50; Gao XM, 2000, JMCC). Following sedation, mice were intubated and ventilated (Harvard apparatus, MA, USA) with room air mixed with oxygen (tidal volume 0.25 mL, 150 breath/min), and placed on a heating pad. A left thoractomy will be made via the ˜third intercostal space, where the beating heart was located.
(§2) The LAD was reversibly ligated using 7-0 silk suture with a slipknot enclosing two releasing rings. Regional ischaemia was confirmed by pale colour of the ligated area. Air was then evacuated from the chest, the cavity was closed and normal respiration was restored. After 40-60 min of ischaemia, blood flow through the left coronary artery was re-established by releasing the slipknot. Sham-operated mice underwent identical surgical procedures except the coronary arteries were not ligated. Three cohorts of mice were scheduled. Cohort 1 was subjected to 40 min ischaemic-24 h reperfusion for the assessment of cardiac necrosis. Cohort 2 was subjected to 60 min occlusion with 48 h reperfusion for the quantification of cardiac and systemic inflammation. The last cohort was subjected to 7 d reperfusion and early cardiac fibrosis was assessed.
(§3) Treatment with study drugs: Animals were randomly assigned to different groups and all treatments were administrated 5 min prior to reperfusion of the LAD. The peptide Ac2-26 (1 mg kg^−1) (Chemieliva, Chongqing, China) and its vehicle (10% dimethyl sulfoxide (DMSO) in saline) were intravenously (i.v.) injected via the tail vein. […] Mice then received drug or vehicle injections daily until the experimental endpoint. The two different vehicles groups reflect different study drug solubility and administration routes.
Assessment of systemic inflammation: Blood samples collected from mice subjected to 60 min ischaemia and 48 h reperfusion were diluted 1:20 into 2% acetic acid to lyse the red blood cells for total WBC counting, using a haemocytometer. Blood smears were stained using a hemacolor staining kit (Merck millipore, Melbourne, Australia) and then examined under 60× magnification using an Olympus Biological CHS microscope (Olympus Inc., Tokyo, Japan) for manual counting of neutrophils, lymphocytes and monocytes per 100 WBCs.
Animal Surgery: Adult C57BL/6 mice were randomly assigned to myocardial ischemia-reperfusion (I-R) injury or sham in vivo. Anesthetized mice (ketamine 80 mg/kg, xylazine 20 mg/kg and atropine 1.2 mg/kg, KXA, i.p.) underwent reversible left arterial descending (LAD) ligation as described (Gao et al. 2000 & Gao et al. 2011). Following sedation, mice were intubated and ventilated (Harvard apparatus, MA, USA) with room air mixed with oxygen (tidal volume 0.25 mL, 150 breaths/min), and placed on a heating pad. A left thoractomy was be made around the third intercostal space, where the beating heart was located. The LAD was reversibly ligated using 7-0 silk suture with a slipknot enclosing two releasing rings. Regional ischemia was confirmed by pale color of the ligated area. Air was then evacuated from the chest, the cavity closed and normal respiration restored. Blood flow through the left coronary artery was subsequently re-established at the end of the ischemic period (i.e. reperfusion) by releasing the slipknot. Three distinct cohorts of mice were studied. Cohorts 1 and 2 were subjected to 40 mins ischemia with either 24 h or 7 days reperfusion, optimal timepoints for the assessment of cardiac necrosis and early cardiac remodeling in vivo, respectively. Cohort 3 was subjected to 60 mins LAD occlusion with 48 h reperfusion, for the quantification of cardiac and systemic inflammation. […]

[2] = Plasma levels and pharmacokinetics in mice; conditions: for Tmax / half-life: mouse, in vivo, Table 9, mice
[3] = system: myocardial I-R injury in C57BL/6 mice; assay: Myocardial I-R in mice: cardiac fibrosis, apoptosis and remodelling after 7 days reperfusion; conditions: for Effect on cardiac remodeling 7 days post I-R: 50 mg/kg i.p.
Experimental: as §1, §2, §3
Assessment of cardiac histology and fibrosis: LV hearts fixed in NBF after 40 min ischaema and 7 d reperfusion were embedded in paraffin by the Alfred Pathology Service (Melbourne, Australia) and sectioned at 4 μm with a Leica 2135 microtome (Leica Microsystems, Wetzlar, Germany). Sections were stained with haematoxylin and eosin (H&E) for assessment of myocardial morphology, or picrosirius red (0.1%, Fluka, Bucks, Switzerland; pH2) for cardiac collagen deposition. Images were taken at 1.25× to capture the whole LV. To examine the local infarct area, images were collected at 20× using the microscope (Olympus BX61, Olympus Inc., Ontario, Canada) and QCapture Pro software (version 5.1 for Windows, Media Cybernetic Inc., Maryland, USA). H&E images were scored blindly in random order on a scale of 1 to 5, based on intensity of blue staining of nuclei (1=least, 5=most, classified by independent observer). The area of picrosirius red staining (% LV area) was quantitatively measured using Image-Pro Plus software (Media Cybernetic Inc., Maryland, USA) for sets of LV slides from 48 h reperfusion and 7 d reperfusion study.
Animal Surgery: Adult C57BL/6 mice were randomly assigned to myocardial ischemia-reperfusion (I-R) injury or sham in vivo. Anesthetized mice (ketamine 80 mg/kg, xylazine 20 mg/kg and atropine 1.2 mg/kg, KXA, i.p.) underwent reversible left arterial descending (LAD) ligation as described (Gao et al. 2000 & Gao et al. 2011). Following sedation, mice were intubated and ventilated (Harvard apparatus, MA, USA) with room air mixed with oxygen (tidal volume 0.25 mL, 150 breaths/min), and placed on a heating pad. A left thoractomy was be made around the third intercostal space, where the beating heart was located. The LAD was reversibly ligated using 7-0 silk suture with a slipknot enclosing two releasing rings. Regional ischemia was confirmed by pale color of the ligated area. […]

[4] = 48 h reperfusion, listed as Cmpd17b

COc1cccc(Cc2cc(C)nn(C(C)C(=O)Nc3ccc(Br)cc3)c2=O)c1 (stereo not shown) [BIDI-001, N-(4-bromophenyl)-2-[5-(3-methoxybenzyl)-3-methyl-6-oxo-6H-pyridazin-1-yl]-propionamide]
Effect on circulating IL-1β ([1]; 48 h reperfusion): significantly blunted
Effect on circulating lymphocytes ([1]; 48 h reperfusion): tended to reduce
Effect on circulating monocytes ([1]; 48 h reperfusion): without affecting
Effect on circulating neutrophils ([1]; 48 h reperfusion): absent
Effect on total circulating WBC ([1]; 48 h reperfusion): tended to reduce
Effect on circulating lymphocytes [1, 4]: significantly blunted
Effect on total circulating WBC [1, 4]: absent
Tmax [2]: 0.5 h
half-life [2]: 7.6 h
Effect on cardiac remodeling 7 days post I-R [3]: reduces cardiac remodeling
Effect on I-R-induced cardiac fibrosis (picrosirius red) ([3]; 7 days reperfusion): absent
Effect on LV apoptosis in the infarct area ([3]; 7 days reperfusion): significantly attenuated
Cardioprotection: Adverse remodelling ([3]; Table 9): ↓↓

CC(C)C1C(NC(=O)Nc2ccc(Cl)cc2)C(=O)N(c2ccccc2)N1C (stereo not shown) [BIDI-002]
Effect on systemic inflammation / early inflammatory response 48 h post I-R ([1]; 50 mg/kg i.p.): not
Effect on circulating lymphocytes ([1]; 48 h reperfusion): significantly increased
Effect on circulating monocytes ([1]; 48 h reperfusion): significantly increased
Plasma level approximately 20 h after the final dose (in words) ([2]; mice subjected to 7 days reperfusion, 50 mg/kg/day i.p.): micromolar range
Tmax [2]: 2 h
half-life [2]: 3.8 h
Effect on cardiac remodeling 7 days post I-R [3]: lacked these cardioprotective actions
Effect on I-R-induced cardiac fibrosis (picrosirius red) ([3]; 7 days reperfusion): persist

Cc1cc(Cc2cccnc2)c(=O)n(CC(=O)Nc2ccc(Cl)cc2)n1 [MIPS-0010396]
Tmax [2]: 1 h
half-life [2]: 11.7 h

Ac2-26: Annexin-A1 N-terminal peptide, peptide ANX-A1 mimetic (Ac-AMVSEFLKQAWFIENEEQEYVQTVK; UniProt P04083 2-26, looked up, fragment)
Effect on total circulating WBC ([1]; 48 h reperfusion): did not significantly alter
Effect on I-R-induced cardiac fibrosis (picrosirius red) ([3]; 7 days reperfusion): tended to be inhibited

— patent publication US10328075B2, “Method of treatment and compounds for use therein” (Baker Heart and Diabetes Institute, priority 2015, dated 2019)
